Measurements published in PubChem BioAssay AID463199 (Broad Institute, 2010).
Calls of active or inactive are those of the source.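 How the source made its calls: active means AC50, the dose giving half-maximal effect, exceeds a fixed cutoff for a compound that rescues yeast growth under heat; inactive means the rest, inconclusive results apart.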

Test system: S. cerevisiae Burl-1 ts mutant growth, BacTiter-Glo, 38.5C 24 h
Experiment: restored growth of temperature-sensitive Burl-1 yeast – whole organism, S. cerevisiae, Burl-1 ts mutant, luminescence, counter-screen for SUMOylation pathway inhibitor project, dose response (AID 463199)

SMILES	AC50
COc1cccc(/C=C2/C(=O)NN(c3ccc(Br)cc3)C2=O)c1O	> 42 µM (inactive)
COc1cc(C(=O)NCCC2=CCCCC2)ccc1OC1CCN(C(C)=O)CC1	> 42 µM (inactive)
Cc1cnc(NC(=O)CSc2nc3ccccc3s2)s1	> 42 µM (inactive)
CCCCn1c(SCC(=O)Nc2cc(C)on2)nnc1-c1ccco1	> 42 µM (inactive)
c1ccc(CCCc2nc(-c3cccnc3)no2)cc1	> 42 µM (inactive)
COc1cc(C(=O)COC(=O)c2cc([N+](=O)[O-])ccc2N2CCOCC2)ccc1OC(F)F	> 42 µM (inactive)
Cc1ccc(C(=O)O)cc1[N+](=O)[O-]	> 42 µM (inactive)
O=C1CC(N(CCc2ccccc2)C(=S)Nc2ccccc2)C(=O)N1c1ccc(F)cc1 (stereo not given)	> 42 µM (inactive)
O=c1c2ccccc2ncn1Cc1ccc2c(c1)OCO2	> 42 µM (inactive)
CC(C)CCOCc1nc2sc3c(c2c(=O)[nH]1)CCC(C)C3 (stereo not given)	> 42 µM (inactive)
CC(C)Sc1ccc(C(=O)Nc2ccc(F)cc2F)cn1	> 42 µM (inactive)
O=C(COc1cccnc1[N+](=O)[O-])Nc1ccc2c(c1)CCC2	> 21 µM (inactive)
N/C(Cn1cncn1)=N\NC(=O)c1ccc(Cl)cc1Cl	> 42 µM (inactive)
O=C(CSc1nnc2ccccn12)NNC(=O)c1ccc(Cl)cc1	> 42 µM (inactive)
O=C(Nc1ccccc1)N1CCN(CCc2ccccc2)CC1	> 42 µM (inactive)
COc1ccc(C(=O)CSc2nnc3ccc(-c4ccccn4)nn23)cc1	> 42 µM (inactive)
COc1ccccc1NC(=S)N(Cc1ccccc1)Cc1cccs1	> 42 µM (inactive)
O=C(/C=C/c1ccc(Cl)cc1)NCc1ccncc1	42 µM
COC(=O)c1cc(Cl)c(NC(=O)C(C)C)cc1OC	> 42 µM (inactive)
CCCc1nc2c(nnn2Cc2ccccc2F)c(=O)[nH]1	> 42 µM (inactive)
CN/C(=C/[N+](=O)[O-])NCCSCc1ccc(CN(C)C)o1	> 42 µM (inactive)
Cc1nn(CC(=O)Nc2ccccn2)c(C)c1[N+](=O)[O-]	> 42 µM (inactive)
O=C(CC1(CC2=NS(=O)(=O)c3ccccc3N2)CCCC1)NCCc1ccccc1	> 42 µM (inactive)
CC(=O)Nc1ccc(/C(C)=N/NC(=O)c2ccncc2)cc1	> 42 µM (inactive)
CN1CC2(C)OC(=O)C(Cl)=C2CC1c1ccccc1 (stereo not given)	> 42 µM (inactive)

SMILES	AC50
CCNC(=O)NC(C(=O)OC)C12CC3CC(CC(C3)C1)C2 (stereo not given)	> 42 µM (inactive)
COc1ccccc1CC(=O)N1CCOCC1	> 42 µM (inactive)
Cc1ccsc1C(=O)NCCc1ccc(S(N)(=O)=O)cc1	> 42 µM (inactive)
C[C@@]12C(=O)Nc3ccc(F)cc3C(=O)N1[C@H]1c3ccccc3OC[C@@H]1[C@@H]2c1ccccc1	> 42 µM (inactive)
Cc1ccc(-n2c(C)cc(/C=N/NC(=O)c3ccncc3)c2C)cc1C	> 42 µM (inactive)
Cc1cc(NC(=O)CC2CCCC2)ccc1Br	> 42 µM (inactive)
COC(=O)Nc1ccc(S(=O)(=O)N2CCCC(C(=O)NC3CCS(=O)(=O)C3)C2)cc1 (stereo not given)	> 42 µM (inactive)
CS(=O)(=O)N(CC(=O)N1CCN(c2ccccc2F)CC1)C1CCCCC1	> 42 µM (inactive)
COC(=O)C1CN(C#N)N(c2ccc(Cl)cc2)C12c1ccccc1-c1ccccc12 (stereo not given)	> 42 µM (inactive)
Oc1c(Br)cc(Br)cc1/C=N/n1c(-c2ccccc2)n[nH]c1=S	> 42 µM (inactive)
O=C1CSC(c2ccc(F)c(F)c2)N1c1ccccc1F (stereo not given)	> 42 µM (inactive)
CCCCNS(=O)(=O)c1ccc2c(c1)oc(=O)n2CC(=O)OCC	> 42 µM (inactive)
Cn1c(CSc2nc3ccccc3s2)nnc1SCC(=O)NCCN1CCOCC1	> 42 µM (inactive)
CC[n+]1c(/C=C(\C)SC)sc2ccccc21	> 42 µM (inactive)
O=C(NCc1ccccn1)C1CC(c2ccc(Cl)c(Cl)c2)=NO1 (stereo not given)	> 42 µM (inactive)
CCCCCOC(=O)C1=C(C)N(C)C(=O)NC1c1cc(Br)c(O)c(OC)c1 (stereo not given)	> 42 µM (inactive)
COc1ccc(CN2CCNC(=O)C2CC(=O)NCc2cn3ccc(C)cc3n2)c(OC)c1 (stereo not given)	> 42 µM (inactive)
COc1ccc2c(c1)[C@H]1[C@H](CO2)[C@H](c2ccccc2)[C@]2(C)C(=O)Nc3ccc(C)cc3C(=O)N12	> 42 µM (inactive)
Cc1ccc(N=c2ssnc2Cl)cc1	> 42 µM (inactive)
O=C(NCc1ccccc1Cl)c1ccc2c(c1)OCO2	> 42 µM (inactive)
O=C1CN(C(=O)COC(=O)c2cccc(S(=O)(=O)NCc3ccccc3)c2)c2ccccc2N1	> 42 µM (inactive)
COc1ccc2nc(NC(=O)c3cc(S(=O)(=O)N4CCOCC4)ccc3C)sc2c1	> 42 µM (inactive)
O=C1CN(C(=O)COC(=O)c2ccccc2NCc2ccco2)c2ccccc2N1	> 42 µM (inactive)
Cc1ccc(NC(=O)/C=N/OCC(=O)NCc2ccccc2Cl)cc1	> 42 µM (inactive)
O=Cc1cn(Cc2ccccc2F)c2ccccc12	> 42 µM (inactive)

SMILES	AC50
Cc1cccc2nc3ccccc3cc12	> 42 µM (inactive)
C=C(C)Cn1c(SCC(=O)N/N=C/c2ccccc2OCC(=O)O)nnc1-c1ccc(Br)cc1	> 42 µM (inactive)
Cc1cc(C)c(S(=O)(=O)NCC(c2cccnc2)N2CCN(Cc3ccccc3)CC2)c(C)c1 (stereo not given)	> 42 µM (inactive)
O=c1[nH]cnc2sc3c(c12)CCC3	> 42 µM (inactive)
O=c1cc(C(F)(F)F)c2sc(N3CCCCC3)nc2[nH]1	> 42 µM (inactive)
CC1CN(CCCOc2ccc([N+](=O)[O-])cc2)CC(C)O1 (stereo not given)	> 42 µM (inactive)
Cc1ccc(S(=O)(=O)NCC(C)n2cncn2)cc1 (stereo not given)	> 42 µM (inactive)
CC(=O)c1ccc(N2CCN(CC(=O)Nc3cc(C)on3)CC2)cc1	> 42 µM (inactive)
CCOC(=O)c1cnc2ccc(Cl)cc2c1N1CCN(C)CC1	> 42 µM (inactive)
COc1cccc(-n2nnc3c(=O)n(CC(=O)N4CCCc5ccccc54)cnc32)c1	> 42 µM (inactive)
FC(F)(F)c1nc2ccccc2n2c(-c3ccc(Cl)cc3Cl)nnc12	> 42 µM (inactive)
Cc1cc(C(F)(F)F)nc(SCC(=O)Nc2cc(C)on2)n1	> 42 µM (inactive)
COc1ccc(N2CCN(CCCNC(=O)C(=O)c3c(C)[nH]c4ccccc34)CC2)cc1	> 21 µM (inactive)
COc1ccc(S(=O)(=O)n2nc(-c3ccc(Cl)cc3)cc2N)cc1OC	> 42 µM (inactive)
COc1ccc(OC)c2c(N)c(C#N)c(C(F)(F)C(F)(F)F)nc12	> 42 µM (inactive)
CN(C)CCOC(=O)CCc1ccccc1	> 42 µM (inactive)
O=C(O)C1CCCCC1C(=O)Nc1ccc(S(=O)(=O)N2CCCC2)cc1 (stereo not given)	> 42 µM (inactive)
CC/C(=N\NC(=O)c1nnn(-c2nonc2N)c1-c1cccs1)c1ccccc1	> 42 µM (inactive)
Cc1ccc(-c2nc(-c3cccnc3)sc2CC(=O)O)cc1	> 42 µM (inactive)
CS(=O)(=O)N(CC(=O)NCCSCc1ccccc1)c1ccc2c(c1)OCO2	> 42 µM (inactive)
C/C(CC(=O)Nc1cccc(Cl)c1Cl)=N\NC(=O)c1ccccc1C	> 42 µM (inactive)
COC(=O)c1ccccc1NC(NC(=O)c1ccco1)C(=O)c1ccccc1 (stereo not given)	> 42 µM (inactive)
CC1(C)NC(=O)N(CC(=O)O)C1=O	> 42 µM (inactive)
COc1ccc(NC(=O)c2cc(C)no2)cc1Cl	> 42 µM (inactive)
Cc1cc(C)c(NC(=O)Cn2c([N+](=O)[O-])cnc2C)c(C)c1	> 42 µM (inactive)

SMILES	AC50
N/C(=N\NC(=O)c1sccc1OCc1ccc(Cl)cc1Cl)c1ccccn1	> 42 µM (inactive)
COc1ccc(CN(CC(=O)NCc2ccco2)C(=O)CCC(=O)Nc2nccs2)cc1	> 42 µM (inactive)
CSCC[C@H](NC(=O)CC(C)(C)C)c1nc2ccccc2[nH]1	> 42 µM (inactive)
O=C(Nc1ccc(Cl)cc1Cl)c1cccc(N2C(=O)C=CC2=O)c1	> 42 µM (inactive)
O=C(Nc1ccc([N+](=O)[O-])cn1)c1ccc2c(c1)OCO2	> 42 µM (inactive)
Cc1c(C(=O)NC(=S)Nc2ccccc2N2CCCC2)cccc1[N+](=O)[O-]	> 42 µM (inactive)
CC(=O)Nc1nn(C)c2nc3ccc(C)cc3cc12	> 42 µM (inactive)
COc1ccccc1NC(=O)c1ccc(-n2ccnc2)c([N+](=O)[O-])c1	> 42 µM (inactive)
O=C(O)c1cn(Cc2ccccn2)c(=O)c2ccccc12	> 42 µM (inactive)
O=C(CCc1nc2sc3c(c2c(=O)[nH]1)CCCC3)N1CCN(c2ccccc2)CC1	> 42 µM (inactive)
COc1ccc(C(=O)O/N=C(\N)c2ccccc2)cc1OC	> 42 µM (inactive)
O=C(Nc1cccc(C(=O)Nc2ccc(F)cc2F)c1)c1ccccc1	> 42 µM (inactive)
O=C1c2ccccc2S(=O)(=O)N1Cc1cc(=O)n2ccsc2n1	> 42 µM (inactive)
CCN(CC1COc2ccccc2O1)C(=S)NCCCN(C)C (stereo not given)	> 42 µM (inactive)
Cc1ccc(C(=O)Nc2nc(-c3ccc(F)cc3)cs2)o1	> 42 µM (inactive)
CCC1CCCCN1CCCNC(=O)C1CCC(CNS(=O)(=O)c2c(C)cc(C)cc2C)CC1 (stereo not given)	> 42 µM (inactive)
Cc1nc(C)n(CC(=O)N2CCCC(C(=O)c3cccc4ccccc34)C2)n1 (stereo not given)	> 42 µM (inactive)
O=C(N/N=C/c1ccccc1)c1[nH]c2ccc(Br)cc2c1-c1ccccc1	> 42 µM (inactive)
CC(C)N=C(NS(=O)(=O)NC(=O)c1ccccc1)c1ccccc1	> 42 µM (inactive)
COC(=O)c1sc(NC(=O)c2ccc(Cn3cc(Cl)cn3)o2)c(C#N)c1C	> 42 µM (inactive)
CC(=O)c1ccc2noc(-c3ccc(F)cc3)c2c1	> 42 µM (inactive)
O=C(NC1CCCCC1)C(c1ccncc1)N(Cc1ccc2c(c1)OCO2)C(=O)C(F)(F)F (stereo not given)	> 42 µM (inactive)
O=C(NCCc1c[nH]c2ccccc12)c1cc(S(=O)(=O)N2CCCCC2)ccc1N1CCOCC1	> 42 µM (inactive)
CCc1ccc(NC(=O)N2CCC(c3ccccc3)C2)cc1 (stereo not given)	> 42 µM (inactive)
Oc1c(Br)cc(Br)cc1C=Nc1ccc2[nH]ncc2c1	> 42 µM (inactive)
